Where two headings read alike, the source gives them in different places.
Experiments:
[1] = Rhodium concentration in the extraction solution phase after extraction, with and without sodium carboxylate salt; format: physicochemical; conditions: for Rh Conc.: extraction solution phase
Method: Each experiment employed an extraction temperature of 50° C., an agitation period of 30 minutes and a phase separation period of 5 minutes followed by sampling of the extraction solution phase. One mL aliquots of the lower, extraction solution phase was sampled for Rh analysis.
The results of these experiments are shown in Table IV wherein Na Conc. and Rh Conc. are the sodium [Na] and rhodium [Rh] concentrations in mg/L in the extraction solution phase. Also set forth in Table IV are the partition coefficients obtained for the C9-enal isomers, C10-dial isomers and the p diisopropylbenzene hydroformylation solvent (H.S.) in each example.
[…] […] The extractions were carried out at 50° C. using 62 mL of each hydroformylation product solution and 50 mL of an extraction mixture consisting of a 3:1 volume ratio of methanol and water.
Each extraction employed an agitation period of 30 minutes and a phase separation period of 5 minutes followed by sampling of the extraction solution phase. One mL aliquots of the lower, extraction solution phase was sampled for Rh analysis. […]

[2] = cited from earlier work

[Rh] [Rh, rhodium]
Rh Conc. in extraction solution phase ([1]; Example 31, 50° C., Na 0): 120 mg/L
Rh Conc. in extraction solution phase ([1]; Example 32, Na 82 mg/L as 2-ethylhexanoate): 54 mg/L
Rh Conc. in extraction solution phase ([1]; Example 33, Na 164 mg/L as 2-ethylhexanoate): 37 mg/L
Rh Conc. in extraction solution phase ([1]; Example 34, Na 327 mg/L as 2-ethylhexanoate): 28 mg/L
Rh Conc. in extraction solution phase ([1]; Example 35, Na 653 mg/L as 2-ethylhexanoate): 20 mg/L
Rh Conc. in extraction solution phase ([1]; Example 36, Na 1307 mg/L as 2-ethylhexanoate): 12 mg/L
Rh Conc. in extraction solution phase ([1]; Example 37, 50° C., Na 0): 56 mg/L
Rh Conc. in extraction solution phase ([1]; Example 38, Na 82 mg/L as oleate): 6 mg/L
Rh Conc. in extraction solution phase ([1]; Example 39, Na 164 mg/L as oleate): 5 mg/L
Rh Conc. in extraction solution phase ([1]; Example 40, Na 327 mg/L as oleate): 4 mg/L
Rh Conc. in extraction solution phase ([1]; Example 41, Na 653 mg/L as oleate): 4 mg/L
Rh Conc. in extraction solution phase ([1]; Example 42, Na 1307 mg/L as oleate): 3.6 mg/L
Rh Conc. in extraction solution phase ([1]; Example 43, 50° C., Na 0): 72 mg/L
Rh Conc. in extraction solution phase ([1]; Example 44, Na 82 mg/L as n butyrate): 39 mg/L
Rh Conc. in extraction solution phase ([1]; Example 45, Na 164 mg/L as n butyrate): 32 mg/L
Rh Conc. in extraction solution phase ([1]; Example 46, Na 327 mg/L as n butyrate): 25 mg/L
Rh Conc. in extraction solution phase ([1]; Example 47, Na 653 mg/L as n butyrate): 22 mg/L
Rh Conc. in extraction solution phase ([1]; Example 48, Na 1307 mg/L as n butyrate): 15 mg/L
Rh Conc. in extraction solution phase ([1]; Example 49, methanol/water 37/27 mL, Na 0): 18.6 mg/L
Rh Conc. in extraction solution phase ([1]; Example 50, methanol/water 37/27 mL, Na 100 as oleate): 2.6 mg/L
Rh Conc. in extraction solution phase ([1]; Example 52, Ref. Ex. 1 (BISBI), MeOH:water 3:1, 50° C., Na 0): 120 mg/L
Rh Conc. in extraction solution phase ([1]; Example 53, Ref. Ex. 1 (BISBI), Na 82 mg/L): 54 mg/L
Rh Conc. in extraction solution phase ([1]; Example 54, Ref. Ex. 1 (BISBI), Na 164 mg/L): 37 mg/L
Rh Conc. in extraction solution phase ([1]; Example 55, Ref. Ex. 1 (BISBI), Na 327 mg/L): 28 mg/L
Rh Conc. in extraction solution phase ([1]; Example 56, Ref. Ex. 11 (TCHP), Na 0): 7.6 mg/L
Rh Conc. in extraction solution phase ([1]; Example 57, Ref. Ex. 11 (TCHP), Na 82 mg/L): 5.2 mg/L
Rh Conc. in extraction solution phase ([1]; Example 58, Ref. Ex. 11 (TCHP), Na 164 mg/L): 2.6 mg/L
Rh Conc. in extraction solution phase ([1]; Example 59, Ref. Ex. 11 (TCHP), Na 327 mg/L): 1.4 mg/L
Rh Conc. in extraction solution phase ([1]; Example 60, Ref. Ex. 12 (TBP), Na 0): 6.2 mg/L
Rh Conc. in extraction solution phase ([1]; Example 61, Ref. Ex. 12 (TBP), Na 82 mg/L): 5.4 mg/L
Rh Conc. in extraction solution phase ([1]; Example 62, Ref. Ex. 12 (TBP), Na 164 mg/L): 5.6 mg/L
Rh Conc. in extraction solution phase ([1]; Example 63, Ref. Ex. 12 (TBP), Na 327 mg/L): 5.4 mg/L
Rh Conc. in extraction solution phase ([1]; Example 64, Ref. Ex. 7 (TPP), Na 0): 7.6 mg/L
Rh Conc. in extraction solution phase ([1]; Example 65, Ref. Ex. 7 (TPP), Na 82 mg/L): 2.0 mg/L
Rh Conc. in extraction solution phase ([1]; Example 66, Ref. Ex. 7 (TPP), Na 164 mg/L): 2.2 mg/L
Rh Conc. in extraction solution phase ([1]; Example 67, Ref. Ex. 7 (TPP), Na 327 mg/L): 1.8 mg/L
Rh Conc. in extraction solution phase ([1]; Example 68, Ref. Ex. 13 (TOP), Na 0): 1.2 mg/L
Rh Conc. in extraction solution phase ([1]; Example 69, Ref. Ex. 13 (TOP), Na 82 mg/L): 1.0 mg/L
Rh Conc. in extraction solution phase ([1]; Example 70, Ref. Ex. 13 (TOP), Na 164 mg/L): < 1 mg/L
Rh Conc. in extraction solution phase ([1]; Example 71, Ref. Ex. 13 (TOP), Na 327 mg/L): < 1 mg/L
Rh Conc. in extraction solution phase ([1]; Example 72, Ref. Ex. 26 (BISBI, TPP), Na 0): 30 mg/L
Rh Conc. in extraction solution phase ([1]; Example 73, Ref. Ex. 26 (BISBI, TPP), Na 82 mg/L): 10 mg/L
Rh Conc. in extraction solution phase ([1]; Example 74, Ref. Ex. 26 (BISBI, TPP), Na 164 mg/L): 8.2 mg/L
Rh Conc. in extraction solution phase ([1]; Example 75, Ref. Ex. 26 (BISBI, TPP), Na 327 mg/L): 6.8 mg/L
Rh Conc. in extraction solution phase ([1]; Example 76, Ref. Ex. 27 (BISBI, TCHP), Na 0): 10 mg/L
Rh Conc. in extraction solution phase ([1]; Example 77, Ref. Ex. 27 (BISBI, TCHP), Na 82 mg/L): 1.8 mg/L
Rh Conc. in extraction solution phase ([1]; Example 78, Ref. Ex. 27 (BISBI, TCHP), Na 164 mg/L): 2.8 mg/L
Rh Conc. ([1]; Example 79): < 1 mg [Rh] per liter
Rh Conc. ([1]; Example 80): < 1 mg [Rh] per liter
Rh Conc. ([1]; Example 81): 3.0 mg [Rh] per liter
Rh Conc. ([1]; Example 82): < 1 mg [Rh] per liter
Rh Conc. ([1]; Example 83): 2.0 mg [Rh] per liter
Rh Conc. ([1]; Example 84): < 1 mg [Rh] per liter
Rh Conc. ([1]; Example 85): < 1 mg [Rh] per liter
Rh Conc. ([1]; Example 86): < 1 mg [Rh] per liter
Rh Conc. ([1]; Example 87): 1.2 mg [Rh] per liter
Rhodium extracted into the aqueous phase ([2]; 4-hydroxybutyraldehyde 38 percent by weight, U.S. Pat. No. 4,678,857): 5 mg of rhodium per liter
Rhodium extracted into the aqueous phase ([2]; aqueous 2-N,N-dimethylaminoethanol, U.S. Pat. No. 4,292,196): 70%

— US5138101A, “Recovery of high-boiling aldehydes from rhodium-catalyzed hydroformylation processes” (Eastman Kodak Company, priority 1991, dated 1992)
